Measurements: PubChem BioAssay (NCI)
“And” between values parts separate entries of the source, which are not always exact repeats. Identical values can stand only once.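 96-well plates; 48 h exposure; 5 concentrations. Endpoints by linear interpolation between flanking doses. Not reached: highest tested concentration assigned. At the GI50, growth is halved. TGI marks complete inhibition of growth.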

Legend:
Test in all cases: NCI tumour cell line growth inhibition, 48 h
[1] = system: XF 498 CNS
[2] = system: HOP-18 NSCLC
[3] = system: NCI-H226 lung
[4] = system: NCI-H460 lung
[5] = system: SK-MEL-2 melanoma
[6] = system: M14 melanoma
[7] = system: SR leukemia
[8] = system: SK-MEL-28 melanoma
[9] = system: HCT-116 colon
[10] = system: MCF7 breast

Structure (SMILES) | TGI [1] [µM] | TGI [2] [µM] | TGI [3] | TGI [4] | TGI [5] [µM] | TGI [6] | TGI [7] | TGI [8] [µM] | TGI [9] | TGI [10] [µM] | GI50 [4] [µM] | GI50 [5] | GI50 [6] [µM] | GI50 [7] [µM] | GI50 [9] [µM] | GI50 [3] [µM] | GI50 [10] [µM] | GI50 [8] [µM] | GI50 [2] [µM]
O=C1CC(O)CC(=O)C1=C(O)CCCCCCCCCCc1ccccc1 (stereo not drawn) | > 100 | > 100 | 94.7 µM | > 100 µM | 77.1 | > 100 µM | > 100 µM | > 100 | > 100 µM |  |  |  |  |  |  |  |  |  | 
O=C(O)CCN(CCCCN(CCC(=O)O)CCC(=O)O)CCC(=O)O | > 100 | > 100 |  | > 100 µM | > 100 | > 100 µM |  | > 100 | > 100 µM |  |  |  |  |  |  |  |  |  | 
C=C(C)C(O)CCC1(C)C=Cc2c(c(C)cc3c2[nH]c2ccccc23)O1 (stereo not drawn) | 25 |  | 22.7 µM and 21.7 µM | 10.6 µM and 5.86 µM | 8.32 | 10.9 µM and 19.7 µM | 25 µM and 16.5 µM | 25 | 25 µM and 21.5 µM | 26.4 | 2.33 | 2.11 µM | 6.63 | 4.43 | 9.87 |  |  |  | 
CCc1ccccc1NC(=O)C1=C(C)NC(C)=C(C(=O)Nc2ccccc2CC)C1c1ccccc1Cl | > 100 |  | > 100 µM | > 100 µM | > 100 | > 100 µM |  | > 100 | > 100 µM |  |  |  |  |  |  |  |  |  | 
N#CC1(C#N)C2(c3ccccc3)OC(c3ccccc3)(c3cc4ccccc4cc32)C1(C#N)C#N |  | 17.8 | 37.2 µM | 41.7 µM | 37.9 | 31.6 µM | 53.8 µM | 26.1 | 20 µM | 27.8 |  |  |  |  |  |  |  |  | 
O=C(NCCCCNc1cccccc1=O)OCc1ccccc1 |  | > 100 | > 100 µM | > 100 µM | > 100 | > 100 µM |  | > 100 | > 100 µM |  |  |  |  |  |  |  |  |  | 
COc1cc(Br)c(C=Nc2cccc3cc(OC)c(OC)cc23)cc1OC |  | > 100 | 82 µM | > 100 µM |  | > 100 µM | > 100 µM | > 100 | > 100 µM |  |  |  |  |  |  |  |  |  | 
CS(=O)(=O)OC1CCC2(C#N)CCC1C2=O (stereo not drawn) | > 100 | > 100 | > 100 µM | > 100 µM | > 100 | > 100 µM | 44 µM | > 100 | > 100 µM |  |  |  |  |  |  |  |  |  | 
C=C1C(=O)O[C@@H]2C[C@@H](C)[C@@H]3C=CC(=O)[C@@]3(C)[C@@H](O)[C@H]12 |  | 3.53 | 4.9 µM | 4.46 µM | 4.04 | 5.63 µM | 2.65 µM | 3.77 | 4.06 µM | 2.3 |  |  |  |  |  |  |  |  | 
NC(=O)C(=O)N/N=C1\C(=O)N(c2ccc(Cl)cc2Cl)C(=O)C1C(=O)Nc1ccc(Cl)cc1Cl (stereo not drawn) | > 100 | > 100 | > 100 µM | > 100 µM | > 100 | > 100 µM | > 100 µM | > 100 | > 100 µM |  |  |  |  |  |  |  |  |  | 
CC1=C(c2ccccc2)C(c2ccccc2)=C(c2ccccc2)C2(c3ccccc3)C(=O)C(C)CN12 (stereo not drawn) | 82.8 |  | 84.8 µM | > 100 µM | > 100 | > 100 µM | > 100 µM | > 100 | > 100 µM |  |  |  |  |  |  |  |  |  | 
CCN(CC)c1c(C(=O)/C=C/c2ccc(Cl)cc2)c(-c2ccccc2)nn(C)c1=O |  | 4.83 | 4.4 µM | 3.67 µM | 3.62 | 4.01 µM |  | 3.02 | 3.11 µM |  |  |  |  |  |  |  |  |  | 
CCCCCCCCCCCc1nnc(N)o1 | > 100 |  | > 100 µM | > 100 µM | > 100 | > 100 µM |  | > 100 | > 100 µM |  |  |  |  |  |  |  |  |  | 
CC(C)=CC1C[C@H](C2CC=C3C2(C)CCC2[C@@]3(C)C(=O)CC3[C@]2(C)C=CC(=O)[C@]3(C)CO)CO1 (stereo partly drawn) | 12.9 | 30.1 |  | 25.4 µM | 14.8 | 12.1 µM | 10.8 µM | 19 | 10.2 µM |  |  |  |  |  |  |  |  |  | 
COc1ccc(C23C(=O)c4ccccc4N2O[C@H]2C(=O)N(c4ccccc4)C(=O)[C@H]23)cc1 (stereo partly drawn) | > 100 | > 100 | > 100 µM | > 100 µM | > 100 | > 100 µM |  | > 100 | > 100 µM |  |  |  |  |  |  |  |  |  | 
C=CCNC(=O)N(CCCCC(NC(C)=O)C(=O)NCc1ccccc1)Cc1ccccc1 (stereo not drawn) | > 100 | > 100 | > 100 µM | > 100 µM | > 100 | > 100 µM |  | > 100 |  |  |  |  |  |  |  |  |  |  | 
COC(=O)CC1C[C@H](C#N)N(C(=O)c2ccccc2)C[C@@H]1CC[N+](=O)[O-] (stereo partly drawn) | > 100 | > 100 |  | > 100 µM | 0.834 | > 100 µM | > 100 µM | > 100 | > 100 µM |  |  |  |  |  |  |  |  |  | 
CN(/N=C/c1cccc2cccnc12)c1ccc([N+](=O)[O-])cc1[N+](=O)[O-] | 19.2 | > 100 | 64.4 µM | > 100 µM | 47.4 | > 94.4 µM |  | > 100 | > 82.1 µM | > 100 |  |  |  |  |  |  |  |  | 
O=C(O)C1=C(O)C(C(=O)O)C23CCCCCCCCCCC12C(C(=O)O)C(O)=C3C(=O)O (stereo not drawn) | > 100 | > 100 | > 100 µM | > 100 µM | > 100 | > 100 µM | > 100 µM | > 100 |  |  |  |  |  |  |  |  |  |  | 
C[C@]12CC[C@@H]3c4ccc(OC(=O)N(CCCl)CCCl)cc4CC[C@H]3[C@@H]1CC[C@@H]2O |  | 14 | 22.3 µM | 12.9 µM | 14.8 | 11.5 µM | 1.42 µM |  | 10.8 µM |  | 2.75 | 4.31 µM | 1.61 | 0.135 | 1.6 | 3.98 | 1.08 | 3.75 | 
Cc1nnn[n-]1.N.N.N.N.N.[Cl-].[Co+3] |  | > 100 | > 100 µM | > 100 µM | > 100 | > 100 µM | > 100 µM | > 100 | > 100 µM |  | > 100 | > 100 µM | > 100 | > 100 | > 100 | > 100 |  | > 100 | > 100
CN(O)C(=O)SCC(NC(=O)CCC(N)C(=O)O)C(=O)NCC(=O)O (stereo not drawn) |  | > 2000 | > 2000 µM | > 2000 µM | > 2000 | > 2000 µM | > 2 µM | > 2000 | > 2000 µM |  | > 2 | > 2 µM and 524 µM | > 2000 |  | > 2000 | > 2000 |  | > 2000 | > 2000
